According to the Deep4Chem optical property database:

Assay: solvent given as SMILES

CC1=[N+]2C(=C(Oc3cc(C)c4c(c3)CC[C@@](C)(CCC[C@H](C)CCC[C@H](C)CCCC(C)C)O4)c3ccc(C)n3[B-]2(F)F)C=C1c1cc2n(c1)[B-](F)(F)[N+]1=CC=CC1=C2c1c(C)cc(C)cc1C
absorption maximum (in C1CCCCC1): 570.5 nm
absorption maximum (in CCOC(C)=O): 575 nm

CCCC1(CCC)c2cc(-c3ccc(OC)cc3)ccc2-c2ccc(-c3ccc4c(c3)C(CCC)(CCC)c3cc(-c5ccc(OC)cc5)ccc3-4)cc21
absorption maximum (in C1CCCCC1): 350 nm

CCCCCCN1C(=O)c2cccc3c(-c4cc5ccccc5s4)ccc(c23)C1=O
absorption maximum (in ClC(Cl)Cl): 378 nm

CCOC(CN1C(=O)C2=C(c3cccs3)N(CC(OCC)OCC)C(=O)C2=C1c1cccs1)OCC
absorption maximum (in ClC(Cl)Cl): 533 nm

Cc1ccc(-c2cnc3nn4ccccc4c3n2)cc1
absorption maximum (in C1CCOC1): 400 nm

CC(C)(C)NC(=O)c1ccc(Br)c2ccc3c4ccc(F)cc4c4cc(F)ccc4c3c12
absorption maximum (in ClCCl): 338 nm

COc1ccc2c3c(c4ccc(OC)cc4c2c1)C(C)(C)c1sccc1-3
absorption maximum (in C1CCCCC1): 391 nm

Fc1cc(-c2ccc(-c3nc4cc(Br)ccc4[nH]3)cc2)ccc1-c1ccc(-c2nc3cc(Br)ccc3[nH]2)cc1
absorption maximum (in CN(C)C=O): 342 nm

COc1cc2c(cc1-c1ccsc1)Cc1c3c(c4c(c1-2)-c1cc(OC)c(-c2ccsc2)cc1C4)C(=O)N(CCC(C)C)C3=O
absorption maximum (in C1CCOC1): 417 nm

c1ccc(-c2ccc(-c3ccc(-c4ccccc4)cc3)cc2)cc1
absorption maximum (in C1CCOC1): 299 nm
absorption maximum (in C1COCCO1): 310 nm

O=P1(c2ccccc2)C(c2cccs2)=C(c2cccs2)c2ccccc21 (configuration not stated)
absorption maximum (in C1CCOC1): 368 nm

CC(=O)Nc1ccccc1C(=O)OC1CC(C)CCC1C(C)C (configuration not stated)
absorption maximum (in C1CCCCC1): 315 nm
absorption maximum (in CC#N): 310 nm
absorption maximum (in CCO): 310 nm
absorption maximum (in CO): 307 nm
absorption maximum (in Cc1ccccc1): 313 nm
absorption maximum (in ClC(Cl)Cl): 312 nm
absorption maximum (in ClCCl): 310 nm

c1ccc(-c2cc(-c3ccc(N4c5ccccc5C(c5ccccc5)(c5ccccc5)c5ccccc54)cc3)nc(-c3ccccc3)n2)cc1
absorption maximum (in Cc1ccccc1): 368.88 nm

COc1cccc2cc(C)c3c4ccccc4n(C)c3c12
absorption maximum (in ClCCl): 370 nm

F[B-]1(F)n2c(Oc3ccccc3)c(Cl)c3c2C(=C2C(Br)=C(Cl)C(Oc4ccccc4)=[N+]21)Oc1ccccc1-3
absorption maximum (in ClCCl): 472 nm

F[B-]1(F)n2cccc2C(c2ccccc2)=C2C=CC(c3ccc(OC4=[N+]5C(=C(c6ccccc6)c6cc(Br)c(Br)n6[B-]5(F)F)C=C4Br)cc3)=[N+]21
absorption maximum (in ClC(Cl)Cl): 562 nm

COc1cc(C2CC(=O)Oc3c2c2nc4ccc(C)cc4nc2c2ccccc32)cc(OC)c1OC (configuration not stated)
absorption maximum (in ClC(Cl)Cl): 412 nm

C(=C\c1nc2ccccc2s1)/c1ccc(-c2nc3c4cccnc4c4ncccc4c3[nH]2)cc1
absorption maximum (in C1CCOC1): 386 nm
absorption maximum (in CC#N): 380 nm
absorption maximum (in CO): 375 nm
absorption maximum (in ClCCl): 384 nm

CC(C)[Si]1(C(C)C)c2cc(C=O)ccc2-c2ccc(N(c3ccccc3)c3ccccc3)cc21
absorption maximum (in C1CCCCC1): 403 nm
absorption maximum (in CC#N): 392 nm
absorption maximum (in CCO): 396 nm
absorption maximum (in CCOCC): 393 nm
absorption maximum (in CS(C)=O): 398 nm
absorption maximum (in ClCCl): 401 nm
absorption maximum (in c1ccccc1): 398 nm

COc1ccc2c(-c3nc(-c4ccccc4Cl)no3)cc(=O)oc2c1
absorption maximum (in CCO): 354 nm
absorption maximum (in ClC(Cl)Cl): 355 nm

CCCCn1c2ccc3ccc4ccccc4c3c2c2c3c(ccc4ccccc43)ccc21
absorption maximum (in ClCCl): 337 nm

COc1cc(-c2nc(-c3ccccc3)c(-c3ccccc3)[nH]2)c(OC)cc1/C=C/c1ccncc1
absorption maximum (in C1CCOC1): 394 nm
absorption maximum (in CC#N): 392 nm
absorption maximum (in CN(C)C=O): 397 nm
absorption maximum (in Cc1ccccc1): 398 nm

COc1cc2sc3cc(OC)c(F)cc3c(=O)c2cc1F
absorption maximum (in CS(C)=O): 316 nm

CCOC(=O)c1c2c3c(ccc([N+](=O)[O-])c3c3cc4ccccc4cc13)N(C)C2=O
absorption maximum (in CC#N): 394 nm

COc1ccccc1C1=[N+]2C(=Cc3c4c(c(-c5ccccc5OC)n3[B-]2(F)F)C2CCC4CC2)C2=C1C1CCC2CC1
absorption maximum (in ClCCl): 550 nm

CCOC(=O)c1cc(C(=O)OCC)c2cc(N(CC)CC)ccc2n1
absorption maximum (in CCO): 453 nm

C[Si]1(C)O[Si](C)(C)c2cc3cc4cc5c(cc4cc3cc21)C(=O)c1cc2cc3cc4c(cc3cc2cc1C5=O)[Si](C)(C)O[Si]4(C)C
absorption maximum (in ClC(Cl)Cl): 470 nm

CCCCC(CC)CN1C(=O)c2cccc3c(C#Cc4ccc(N(c5ccccc5)c5ccc(C#Cc6ccc7c8c(cccc68)C(=O)N(CC(CC)CCCC)C7=O)cc5)cc4)ccc(c23)C1=O (configuration not stated)
absorption maximum (in C1CCCCC1): 453 nm
absorption maximum (in C1CCOC1): 451 nm
absorption maximum (in CC#N): 456 nm
absorption maximum (in Cc1ccccc1): 452 nm
absorption maximum (in ClC(Cl)Cl): 466 nm

CCn1c(-c2ccc(-c3cccc4ccccc34)cc2)c(-c2ccc3ccccc3c2)c(-c2ccc3ccccc3c2)c1-c1ccc(-c2cccc3ccccc23)cc1
absorption maximum (in CCOC(C)=O): 292 nm

F[B-]1(F)n2c(cc3c2-c2ccccc2CC3)C(c2ccc(I)cc2)=C2C=C3CCc4ccccc4C3=[N+]21
absorption maximum (in ClC(Cl)Cl): 634 nm

O=c1oc2ccccc2c2cc(N3c4ccccc4Oc4ccccc43)ccc12
absorption maximum (in Cc1ccccc1): 395 nm

N#Cc1c(N2CCCCC2)cc(-c2ccc3ccc4cccc5ccc2c3c45)c2c1-c1ccccc1C2=O
absorption maximum (in C1CCOC1): 393 nm
